Experimental data: ChEMBL document CHEMBL1201862, “PubChem BioAssay data set” (2004)
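Growth conditions: 96-well plates. Treatment: test compound, 48 hours, 5 concentrations. Analysis: linear interpolation between bracketing concentrations; unreached endpoints set to highest concentration. Abbreviation: GI50, concentration required for 50% inhibition of growth.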 Active and inactive are the calls of the source. Cut-off read from the data, not from the text of the source: active = GI50 up to about 1.1 µM and inactive = higher.

Columns and labels:
Experiment in all cases: NCI-60 cell line screen, 48 h
IGROV-1 = system: IGROV-1
COLO 205 = system: COLO 205
MOLT-4 = system: MOLT-4
MDA-MB-435 = system: MDA-MB-435
U-251 = system: U-251
SNB-19 = system: SNB-19
UO-31 = system: UO-31
ACHN = system: ACHN
UACC-62 = system: UACC-62
TK-10 = system: TK-10
NCI/ADR-RES = system: NCI/ADR-RES
MCF7 = system: MCF7
BT-549 = system: BT-549
OVCAR-8 = system: OVCAR-8
CAKI-1 = system: CAKI-1
K562 = system: K562
NCI-H460 = system: NCI-H460
MDA-MB-231 = system: MDA-MB-231
HOP-92 = system: HOP-92
SNB-75 = system: SNB-75
KM12 = system: KM12
SN12C = system: SN12C
NCI-H23 = system: NCI-H23
SK-MEL-5 = system: SK-MEL-5
EKVX = system: EKVX
M14 = system: M14
NCI-H522 = system: NCI-H522
NCI-H226 = system: NCI-H226
DU-145 = system: DU-145
RXF 393 = system: RXF 393
HL-60 = system: HL-60
OVCAR-4 = system: OVCAR-4
MDA-N = system: MDA-N
RPMI-8226 = system: RPMI-8226
SF-295 = system: SF-295
HOP-62 = system: HOP-62
SF-539 = system: SF-539
PC-3 = system: PC-3
OVCAR-3 = system: OVCAR-3
SW-620 = system: SW-620
CCRF-CEM = system: CCRF-CEM
T47D = system: T47D
OVCAR-5 = system: OVCAR-5
SK-MEL-28 = system: SK-MEL-28
HCT-116 = system: HCT-116
SK-MEL-2 = system: SK-MEL-2
SR = system: SR
HT-29 = system: HT-29
LOX IMVI = system: LOX IMVI
UACC-257 = system: UACC-257
SF-268 = system: SF-268
786-0 = system: 786-0
HCC 2998 = system: HCC 2998
HCT-15 = system: HCT-15
Malme-3M = system: Malme-3M
SK-OV-3 = system: SK-OV-3
A549 = system: A549
A498 = system: A498
Hs-578T = system: Hs-578T

In the case of CC1(C)OC2[C@@H](CO[C@@]3([C@@H](O)CCO)OC(C)(C)O[C@@H]23)O1 (stereo partly specified), the GI50 (IGROV-1) is reported as > 100 µM (inactive), the GI50 (COLO 205) is reported as > 100 µM (inactive) and the GI50 (MOLT-4) is reported as > 100 µM (inactive). For the same compound, the GI50 (MDA-MB-435) was > 100 µM (inactive), the GI50 (U-251) was > 100 µM (inactive) and the GI50 (SNB-19) was > 100 µM (inactive). The GI50 (UO-31) was > 100 µM (inactive), the GI50 (ACHN) was > 100 µM (inactive) and the GI50 (UACC-62) was > 100 µM (inactive). The GI50 (TK-10) was > 100 µM (inactive), the GI50 (NCI/ADR-RES) was > 100 µM (inactive) and the GI50 (MCF7) was > 100 µM (inactive). For the same compound, the GI50 (BT-549) was > 100 µM (inactive), the GI50 (OVCAR-8) was > 100 µM (inactive) and the GI50 (CAKI-1) was > 100 µM (inactive). For the same compound, the GI50 (K562) was > 100 µM (inactive), the GI50 (NCI-H460) was > 100 µM (inactive) and the GI50 (MDA-MB-231) was > 100 µM (inactive). The GI50 (HOP-92) was > 100 µM (inactive), the GI50 (SNB-75) was > 100 µM (inactive) and the GI50 (KM12) was > 100 µM (inactive). The GI50 (SN12C) was > 100 µM (inactive), the GI50 (NCI-H23) was > 100 µM (inactive) and the GI50 (SK-MEL-5) was > 100 µM (inactive). The GI50 (EKVX) was > 100 µM (inactive), the GI50 (M14) was > 100 µM (inactive) and the GI50 (NCI-H522) was > 100 µM (inactive). For the same compound, the GI50 (NCI-H226) was > 100 µM (inactive), the GI50 (DU-145) was > 100 µM (inactive) and the GI50 (RXF 393) was > 100 µM (inactive). For the same compound, the GI50 (HL-60) was > 100 µM (inactive), the GI50 (OVCAR-4) was > 100 µM (inactive) and the GI50 (MDA-N) was > 100 µM (inactive). The GI50 (RPMI-8226) was > 100 µM (inactive), the GI50 (SF-295) was > 100 µM (inactive) and the GI50 (HOP-62) was > 100 µM (inactive). For the same compound, the GI50 (SF-539) was > 100 µM (inactive), the GI50 (PC-3) was > 100 µM (inactive) and the GI50 (OVCAR-3) was > 100 µM (inactive). The GI50 (SW-620) was > 100 µM (inactive), the GI50 (CCRF-CEM) was > 100 µM (inactive) and the GI50 (T47D) was > 100 µM (inactive). The GI50 (OVCAR-5) was > 100 µM (inactive), the GI50 (SK-MEL-28) was > 100 µM (inactive) and the GI50 (HCT-116) was > 100 µM (inactive). For the same compound, the GI50 (SK-MEL-2) was > 100 µM (inactive), the GI50 (SR) was > 100 µM (inactive) and the GI50 (HT-29) was > 100 µM (inactive). The GI50 (LOX IMVI) was > 100 µM (inactive), the GI50 (UACC-257) was > 100 µM (inactive) and the GI50 (SF-268) was > 100 µM (inactive). The GI50 (786-0) was > 100 µM (inactive), the GI50 (HCC 2998) was > 100 µM (inactive) and the GI50 (HCT-15) was > 100 µM.

In the case of N#CC(CCN1CCC(Nc2ccccc2)(c2nnnn2C2CCCCC2)CC1)(c1ccccc1)c1ccccc1, the GI50 (IGROV-1) is reported as > 100 µM (inactive), the GI50 (COLO 205) is reported as > 100 µM (inactive) and the GI50 (MOLT-4) is reported as > 100 µM (inactive). The GI50 (MDA-MB-435) was > 100 µM (inactive), the GI50 (U-251) was > 100 µM (inactive) and the GI50 (SNB-19) was > 100 µM (inactive). For the same compound, the GI50 (UO-31) was > 100 µM (inactive), the GI50 (Malme-3M) was > 100 µM (inactive) and the GI50 (ACHN) was > 100 µM (inactive). For the same compound, the GI50 (UACC-62) was > 100 µM (inactive), the GI50 (TK-10) was > 100 µM (inactive) and the GI50 (NCI/ADR-RES) was > 100 µM (inactive). For the same compound, the GI50 (MCF7) was 58.2 µM (inactive), the GI50 (BT-549) was > 100 µM (inactive) and the GI50 (OVCAR-8) was > 100 µM (inactive). For the same compound, the GI50 (K562) was > 100 µM (inactive), the GI50 (NCI-H460) was > 100 µM (inactive) and the GI50 (MDA-MB-231) was > 100 µM (inactive). For the same compound, the GI50 (SNB-75) was > 100 µM (inactive), the GI50 (KM12) was > 100 µM (inactive) and the GI50 (SN12C) was > 100 µM (inactive). For the same compound, the GI50 (NCI-H23) was > 100 µM (inactive), the GI50 (SK-MEL-5) was > 100 µM (inactive) and the GI50 (EKVX) was > 100 µM (inactive). The GI50 (M14) was > 100 µM (inactive), the GI50 (NCI-H522) was > 100 µM (inactive) and the GI50 (NCI-H226) was > 100 µM (inactive). For the same compound, the GI50 (DU-145) was 81.3 µM (inactive), the GI50 (RXF 393) was > 100 µM (inactive) and the GI50 (HL-60) was > 100 µM (inactive). For the same compound, the GI50 (OVCAR-4) was > 100 µM (inactive), the GI50 (MDA-N) was > 100 µM (inactive) and the GI50 (RPMI-8226) was > 100 µM (inactive). For the same compound, the GI50 (SF-295) was > 100 µM (inactive), the GI50 (SK-OV-3) was > 100 µM (inactive) and the GI50 (HOP-62) was > 100 µM (inactive). For the same compound, the GI50 (SF-539) was > 100 µM (inactive), the GI50 (PC-3) was > 100 µM (inactive) and the GI50 (OVCAR-3) was > 100 µM (inactive). For the same compound, the GI50 (SW-620) was > 100 µM (inactive), the GI50 (CCRF-CEM) was > 100 µM (inactive) and the GI50 (OVCAR-5) was > 100 µM (inactive). The GI50 (A549) was > 100 µM (inactive), the GI50 (SK-MEL-28) was > 100 µM (inactive) and the GI50 (HCT-116) was > 100 µM (inactive). For the same compound, the GI50 (SK-MEL-2) was > 100 µM (inactive), the GI50 (SR) was > 100 µM (inactive) and the GI50 (A498) was > 100 µM (inactive). The GI50 (HT-29) was > 100 µM (inactive), the GI50 (LOX IMVI) was > 100 µM (inactive) and the GI50 (UACC-257) was > 100 µM (inactive). For the same compound, the GI50 (SF-268) was > 100 µM (inactive), the GI50 (786-0) was > 100 µM (inactive) and the GI50 (HCC 2998) was > 100 µM (inactive). For the same compound, the GI50 (Hs-578T) was > 100 µM (inactive) and the GI50 (HCT-15) was > 100 µM.

For CC1=C(C)C(=O)C2=C(OCCO2)C1=O, the GI50 (IGROV-1) was 2.11 µM (inactive), the GI50 (COLO 205) was 17.6 µM (inactive) and the GI50 (MOLT-4) was 2.55 µM (inactive). The GI50 (MDA-MB-435) was 2.82 µM (inactive), the GI50 (U-251) was 16.1 µM (inactive) and the GI50 (SNB-19) was 17.3 µM (inactive). For the same compound, the GI50 (UO-31) was 10.1 µM (inactive), the GI50 (Malme-3M) was 15.9 µM (inactive) and the GI50 (ACHN) was 25.2 µM (inactive). The GI50 (TK-10) was 16.9 µM (inactive), the GI50 (NCI/ADR-RES) was 3.54 µM (inactive) and the GI50 (MCF7) was 24.5 µM (inactive). For the same compound, the GI50 (BT-549) was 22.8 µM (inactive), the GI50 (OVCAR-8) was 3.08 µM (inactive) and the GI50 (CAKI-1) was 17.6 µM (inactive). The GI50 (NCI-H460) was 20.6 µM (inactive), the GI50 (MDA-MB-231) was 4.47 µM (inactive) and the GI50 (HOP-92) was 2.75 µM (inactive). For the same compound, the GI50 (KM12) was 17.3 µM (inactive), the GI50 (SN12C) was 20 µM (inactive) and the GI50 (NCI-H23) was 18.2 µM (inactive). For the same compound, the GI50 (SK-MEL-5) was 16 µM (inactive), the GI50 (EKVX) was 15.1 µM (inactive) and the GI50 (M14) was 19.3 µM (inactive). For the same compound, the GI50 (NCI-H226) was 24.3 µM (inactive), the GI50 (DU-145) was 18.8 µM (inactive) and the GI50 (HL-60) was 2.96 µM (inactive). The GI50 (MDA-N) was 10.3 µM (inactive), the GI50 (RPMI-8226) was 2.34 µM (inactive) and the GI50 (SF-295) was 18.1 µM (inactive). The GI50 (SK-OV-3) was 17.9 µM (inactive), the GI50 (HOP-62) was 17.7 µM (inactive) and the GI50 (SF-539) was 19.9 µM (inactive). For the same compound, the GI50 (PC-3) was 18.2 µM (inactive), the GI50 (OVCAR-3) was 10.3 µM (inactive) and the GI50 (SW-620) was 20.6 µM (inactive). The GI50 (CCRF-CEM) was 3.73 µM (inactive), the GI50 (T47D) was 2.39 µM (inactive) and the GI50 (OVCAR-5) was 19.7 µM (inactive). For the same compound, the GI50 (A549) was 21.5 µM (inactive), the GI50 (SK-MEL-28) was 16.1 µM (inactive) and the GI50 (HCT-116) was 3.73 µM (inactive). The GI50 (SR) was 4.09 µM (inactive), the GI50 (A498) was 19.5 µM (inactive) and the GI50 (HT-29) was 20 µM (inactive). For the same compound, the GI50 (LOX IMVI) was 12.1 µM (inactive), the GI50 (UACC-257) was 13.8 µM (inactive) and the GI50 (SF-268) was 27.1 µM (inactive). The GI50 (786-0) was 22.5 µM (inactive), the GI50 (HCC 2998) was 19.5 µM (inactive) and the GI50 (HCT-15) was 17.5 µM.
